Experimental data from US20230141101A1, “PDE4 INHIBITOR COMPOUND AND MEDICAL USE THEREOF” (Suzhou Longbotai Pharmaceuticals Co., Ltd., priority 2020, published 2023).

What was measured:
Assay type in all cases: biochemical
Settings in all cases: 20 nM
[1] = target: T1, PDE4A1A (Homo sapiens, UniProt P27815); test: PDE4 inhibitory activity assay (FAM-cAMP enzymatic reaction), PDE4A1A
T1 construct: purchased BPS 60040
Outline: (§1)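 Read-out: fluorescence-based detection of FAM-cAMP turnover on a multilabel counter, with IC50 derived by fitting inhibition rates. The reaction ran 30 min at room temperature after a 15-min enzyme–compound preincubation, followed by stopping and 60 min further incubation.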

[2] = target: T2, PDE4B1 (Homo sapiens, UniProt Q07343); test: PDE4 inhibitory activity assay (FAM-cAMP enzymatic reaction), PDE4B1
T2 construct: purchased BPS 60041
Outline: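 Each isoform is incubated with test compound for 15 min at room temperature before FAM-cAMP substrate starts a 30-min reaction.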

[3] = target: PDE4D2 (Homo sapiens, UniProt Q08499); test: PDE4 inhibitory activity assay (FAM-cAMP enzymatic reaction), PDE4D2
Outline: as §1

T2 sequence (Q07343 whole entry): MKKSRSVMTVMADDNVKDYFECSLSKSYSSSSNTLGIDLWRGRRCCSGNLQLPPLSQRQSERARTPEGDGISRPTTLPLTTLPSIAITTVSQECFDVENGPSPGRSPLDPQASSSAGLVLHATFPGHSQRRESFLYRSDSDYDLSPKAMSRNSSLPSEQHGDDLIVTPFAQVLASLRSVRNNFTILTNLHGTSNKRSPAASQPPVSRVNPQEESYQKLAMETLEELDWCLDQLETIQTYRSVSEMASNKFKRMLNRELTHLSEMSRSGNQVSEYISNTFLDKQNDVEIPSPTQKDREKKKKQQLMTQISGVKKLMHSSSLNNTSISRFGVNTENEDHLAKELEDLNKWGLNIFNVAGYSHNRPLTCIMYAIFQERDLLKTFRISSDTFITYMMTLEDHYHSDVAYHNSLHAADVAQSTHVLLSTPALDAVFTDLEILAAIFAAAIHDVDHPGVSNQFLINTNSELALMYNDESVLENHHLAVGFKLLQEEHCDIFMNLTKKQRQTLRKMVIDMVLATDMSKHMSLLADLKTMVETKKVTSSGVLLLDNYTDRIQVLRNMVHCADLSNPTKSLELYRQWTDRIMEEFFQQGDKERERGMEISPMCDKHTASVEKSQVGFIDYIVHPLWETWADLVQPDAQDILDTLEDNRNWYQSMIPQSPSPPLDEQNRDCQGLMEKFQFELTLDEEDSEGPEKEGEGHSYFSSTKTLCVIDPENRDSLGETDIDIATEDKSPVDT
T1 sequence (P27815 1-647 isoform P27815-4): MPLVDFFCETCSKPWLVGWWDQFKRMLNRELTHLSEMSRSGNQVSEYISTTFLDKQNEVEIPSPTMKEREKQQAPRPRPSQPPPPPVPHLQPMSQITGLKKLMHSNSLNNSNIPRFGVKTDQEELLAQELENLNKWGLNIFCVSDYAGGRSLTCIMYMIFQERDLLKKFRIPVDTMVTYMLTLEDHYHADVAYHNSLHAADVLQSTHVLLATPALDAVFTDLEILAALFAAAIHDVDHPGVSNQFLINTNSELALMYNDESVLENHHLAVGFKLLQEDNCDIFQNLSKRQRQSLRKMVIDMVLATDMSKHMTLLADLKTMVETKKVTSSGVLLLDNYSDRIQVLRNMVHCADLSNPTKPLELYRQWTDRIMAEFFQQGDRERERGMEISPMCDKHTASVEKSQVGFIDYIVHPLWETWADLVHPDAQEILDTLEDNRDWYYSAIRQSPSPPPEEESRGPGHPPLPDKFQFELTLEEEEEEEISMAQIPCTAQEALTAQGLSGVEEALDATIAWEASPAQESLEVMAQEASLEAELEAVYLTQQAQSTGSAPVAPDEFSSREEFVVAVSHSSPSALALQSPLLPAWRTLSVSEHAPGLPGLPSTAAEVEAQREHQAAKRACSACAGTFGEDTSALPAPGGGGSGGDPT
Sequence of PDE4D2 (Q08499 303-809): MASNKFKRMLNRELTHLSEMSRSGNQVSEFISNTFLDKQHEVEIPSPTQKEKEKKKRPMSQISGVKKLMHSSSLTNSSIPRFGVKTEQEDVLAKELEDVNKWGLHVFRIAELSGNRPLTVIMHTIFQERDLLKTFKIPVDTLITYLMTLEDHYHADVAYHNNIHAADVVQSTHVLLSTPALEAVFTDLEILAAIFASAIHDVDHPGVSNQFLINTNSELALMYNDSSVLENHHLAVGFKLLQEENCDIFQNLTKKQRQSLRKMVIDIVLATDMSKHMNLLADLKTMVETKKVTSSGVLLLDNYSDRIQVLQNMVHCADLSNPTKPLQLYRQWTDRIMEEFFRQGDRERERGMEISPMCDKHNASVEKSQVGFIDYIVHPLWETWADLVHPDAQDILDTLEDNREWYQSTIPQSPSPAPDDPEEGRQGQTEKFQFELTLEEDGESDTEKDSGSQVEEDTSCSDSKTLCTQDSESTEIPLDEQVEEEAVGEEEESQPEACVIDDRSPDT

CCOc1nc([C@@H](CS(C)(=O)=O)n2c(=O)n(C3CC3)c3cc(-c4ccccc4F)ccc32)ccc1OC [Ex. 208, (S)-3-cyclopropyl-1-(1-(6-ethoxy-5-methoxypyridin-2-yl)-2-(methylsulfonyl)ethyl)-5-(2-fluorophenyl)-1H-benzo[d]imidazol-2(3H)-one]
+: PDE4 A1 inhibitory effect at 20 nM [1] | PDE4 B1 inhibitory effect at 20 nM [2] | PDE4 D2 inhibitory effect at 20 nM [3]

CCOc1nc([C@@H](CS(C)(=O)=O)N2Cc3cccc(NC(C)=O)c3C2=O)ccc1OC [Ex. 215, (S)—N-(2-(1-(6-ethoxy-5-methoxypyridin-2-yl)-2-(methylsulfonyl)ethyl)-3-oxoisoindolin-4-yl)acetamide]
+: PDE4 A1 inhibitory effect at 20 nM [1] | PDE4 B1 inhibitory effect at 20 nM [2] | PDE4 D2 inhibitory effect at 20 nM [3]

CCOc1nc([C@@H](CS(C)(=O)=O)n2c(=O)[nH]c3c(C)c(-c4cc(F)ccc4C)cnc32)ccc1OC [Ex. 36, (S)-6-(5-fluoro-2-methylphenyl)-3-(1-(6-ethoxy-5-methoxypyridin-2-yl)-2-(methylsulfonyl)ethyl)-7-methyl-1H-imidazo[4,5-b]pyridin-2(3H)-one]
+: PDE4 A1 inhibitory effect at 20 nM [1] | PDE4 B1 inhibitory effect at 20 nM [2] | PDE4 D2 inhibitory effect at 20 nM [3]

CCOc1nc([C@@H](CS(C)(=O)=O)n2c(=O)[nH]c3cc(-c4cc(C)ccc4C)cnc32)ccc1OC [Ex. 101, (S)-6-(2,5-dimethylphenyl)-3-(1-(6-ethoxy-5-methoxypyridin-2-yl)-2-(methylsulfonyl)ethyl)-1H-imidazo[4,5-b]pyridin-2(3H)-one]
+: PDE4 A1 inhibitory effect at 20 nM [1] | PDE4 B1 inhibitory effect at 20 nM [2] | PDE4 D2 inhibitory effect at 20 nM [3]

CCOc1nc([C@@H](CS(C)(=O)=O)n2c(=O)[nH]c3cc(-c4ccc(C)cc4C)ccc32)ccc1OC [Ex. 162, (S)-5-(2,4-dimethylphenyl)-1-(1-(6-ethoxy-5-methoxypyridin-2-yl)-2-(methylsulfonyl)ethyl)-1H-benzo[d]imidazol-2(3H)-one]
+: PDE4 A1 inhibitory effect at 20 nM [1] | PDE4 B1 inhibitory effect at 20 nM [2] | PDE4 D2 inhibitory effect at 20 nM [3]

CCOc1nc([C@@H](CS(C)(=O)=O)N2C(=O)c3csc(NC(=O)CN4CCCCC4)c3C2=O)ccc1OC [Ex. 230, (S)—N-(5-(1-(6-ethoxy-5-methoxypyridin-2-yl)-2-(methylsulfonyl)ethyl)-4,6-dioxo-5,6-dihydro-4H-thieno[3,4-c]pyrrol-1-yl)-2-(piperidin-1-yl)acetamide]
+: PDE4 A1 inhibitory effect at 20 nM [1] | PDE4 B1 inhibitory effect at 20 nM [2] | PDE4 D2 inhibitory effect at 20 nM [3]

CCOc1nc([C@@H](CS(C)(=O)=O)n2c(=O)[nH]c3cc(-c4ccccc4F)ccc32)ccc1OC [Ex. 132, (S)-1-(1-(6-ethoxy-5-methoxypyridin-2-yl)-2-(methylsulfonyl)ethyl)-5-(2-fluorophenyl)-1H-benzo[d]imidazol-2(3H)-one]
+: PDE4 A1 inhibitory effect at 20 nM [1] | PDE4 B1 inhibitory effect at 20 nM [2] | PDE4 D2 inhibitory effect at 20 nM [3]

CCOc1nc([C@@H](CS(C)(=O)=O)n2c(=O)n(CC(F)F)c3c(C)c(-c4ccccc4C)cnc32)ccc1OC(C)C [Ex. 72, (S)-1-(2,2-difluoroethyl)-3-(1-(6-ethoxy-5-isopropoxypyridin-2-yl)-2-(methylsulfonyl)ethyl)-7-methyl-6-(o-methylphenyl)-1H-imidazo[4,5-b]pyridin-2(3H)-one]
+: PDE4 A1 inhibitory effect at 20 nM [1] | PDE4 B1 inhibitory effect at 20 nM [2] | PDE4 D2 inhibitory effect at 20 nM [3]
